pIC50, pKd: −log10 of the molar value. Read-outs that look alike come from different tables or passages of the source.
How the values were obtained:
[1] = biological target: T1, Bcl-2 (Homo sapiens (Human), UniProt P10415); assay: Bcl-2 protein family binding assay (Bcl2scan platform), Bcl-2; details: BIM peptide ligand, 11-point dilution, read-out: Bc1-2 Kd (nm)
Description: (§1) E. coli were grown to log-phase and infected with T7 phage from a frozen stock (multiplicity of infection=0.4) and incubated with shaking at 32° C. until lysis (90-150 minutes). The lysates were centrifuged (5,000×g) and filtered (0.2 μm) to remove cell debris. […] The liganded beads were blocked with excess biotin and washed with blocking buffer (SeaBlock (Pierce), 1% BSA, 0.05% Tween 20, 1 mM DTT) to remove unbound ligand and to reduce non-specific phage binding. […] Test compounds were prepared as 100× stocks in 100% DMSO. Kds were determined using an 11-point 3-fold compound dilution series with one DMSO control point. […] The compounds were then diluted directly into the assays such that the final concentration of DMSO was 0.9%. All reactions performed in polypropylene 384-well plates. Each was a final volume of 0.02 ml. […] The BCL2 concentration in the eluates was measured by qPCR. Binding constants (Kds) were calculated with a standard dose-response curve using the Hill equation:
(§2) [formula] The Hill Slope was set to −1. Curves were fitted using a non-linear least square fit with the Levenberg-Marquardt algorithm.

[2] = test system: RS4;11 cells; assay: RS4;11 cell proliferation assay (CellTiter-Glo); format: cell-based; details: Homo sapiens, RS4-11, 48 h, read-out: RS4;11 (nM), CTG IC50
Description: (§3) Cell proliferation was measured using the CellTiter-Glo® Luminescent Cell Viability Assay. The assay involved the addition of a single reagent (CellTiter-Glo® Reagent) directly to cells cultured in serum-supplemented medium.
(§4) Each compound evaluated was prepared as a DMSO stock solution (10 mM). Compounds were tested in duplicate on each plate, with a 10-point serial dilution curve (1:3 dilution). Compound treatment (1.0 μL) was added from the compound dilution plate to the cell plate. The highest compound concentration was 10 μM (final), with a 0.1% final DMSO concentration. Plates were then incubated at 37° C., 5% CO2. After 48 h of compound treatment for RS4;11 or 72 h for NCI-H1963, cell plates were equilibrated at rt for approximately 30 mins. An equi-volume amount of CellTiter-Glo® Reagent (40 μL) was added to each well. […] Luminescence was recorded using a Envision plate reader according to CellTiter-Glo protocol. IC50 of each compound was calculated using GraphPad Prism by nonlinear regression analysis.

[3] = biological target: T2, Bcl-XL (Homo sapiens (Human), UniProt Q07817); assay: Bcl-XL HTRF assay (FAM-Bad peptide); format: binding; details: read-out: Bc1-XL IC50
[4] = biological target: T1, Bcl-2; assay: Bcl-2 HTRF assay (FAM-Bak peptide); format: binding; details: read-out: Bc1-2 IC50
[5] = biological target: T2, Bcl-XL; assay: Bcl-2 protein family binding assay (Bcl2scan platform), Bcl-XL; details: BIM peptide ligand, 11-point dilution, read-out: Bc1-XL Kd (nm)
Description: as §1, §2

[6] = test system: NCI-H1963 cells; assay: NCI-H1963 cell proliferation assay (CellTiter-Glo); format: cell-based; details: Homo sapiens, NCI-H1963, 72 h, read-out: H1963 (nM), CTG IC50
Description: as §3, §4

[7] = HTRF, 3 nM Bcl-XL, 40 nM FAM-Bad peptide
[8] = HTRF, 4 nM Bcl-2, 100 nM FAM-Bak peptide

T2 sequence (Q07817 whole entry): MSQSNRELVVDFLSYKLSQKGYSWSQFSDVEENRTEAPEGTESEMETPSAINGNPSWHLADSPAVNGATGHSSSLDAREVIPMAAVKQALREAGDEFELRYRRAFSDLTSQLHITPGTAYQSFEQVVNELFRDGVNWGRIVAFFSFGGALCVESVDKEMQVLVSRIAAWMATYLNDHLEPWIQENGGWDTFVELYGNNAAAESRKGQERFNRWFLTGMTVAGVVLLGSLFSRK
T1 sequence (P10415 whole entry): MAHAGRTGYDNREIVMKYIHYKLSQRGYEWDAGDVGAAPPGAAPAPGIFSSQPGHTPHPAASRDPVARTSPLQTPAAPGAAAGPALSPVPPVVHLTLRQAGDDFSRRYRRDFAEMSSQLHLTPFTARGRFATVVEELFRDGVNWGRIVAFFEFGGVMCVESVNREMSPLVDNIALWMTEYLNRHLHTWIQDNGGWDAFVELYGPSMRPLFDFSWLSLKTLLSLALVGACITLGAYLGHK

SMILES | pKd [1] | IC50 [2] [nM] | pIC50 [3, 7] | pIC50 [4, 8] | pKd [5] | pIC50 [3] | pIC50 [4] | IC50 [6] [nM]
CC1(C)CCC(CN2CCN(c3ccc(C(=O)NS(=O)(=O)c4ccc(NCC5(F)CCOCC5)c([N+](=O)[O-])c4)c(Oc4cnc5[nH]ccc5c4)c3)CC2)=C(C23CC(C)(C2)C3)C1 [Example 15, 2-(1H-pyrrolo[2,3-b]pyridin-5-yloxy)-4-(4-((4,4-dimethyl-2-(3-methylbicyclo[1.1.1]pentan-1-yl)cyclohex-1-enyl)methyl)piperazin-1-yl)-N-(4-((4-fluorotetrahydro-2H-pyran-4-yl)methylamino)-3-nitrophenylsulfonyl)benzamide] | > 8.00 | < 100 | ≤ 7.00 | ≥ 8.00 | < 7.00 | – | – | –
CC1(C)CCC(CN2CCN(c3ccc(C(=O)NS(=O)(=O)c4ccc(NC[C@H]5CC[C@](C)(O)CC5)c([N+](=O)[O-])c4)c(Oc4cnc5[nH]ccc5c4)c3)CC2)=C(C23CC(C)(C2)C3)C1 [Example 20, 2-(1H-pyrrolo[2,3-b]pyridin-5-yloxy)-4-(4-((4,4-dimethyl-2-(3-methylbicyclo[1.1.1]pentan-1-yl)cyclohex-1-enyl)methyl)piperazin-1-yl)-N-(4-(((1r,4r)-4-hydroxy-4-methylcyclohexyl)methylamino)-3-nitrophenylsulfonyl)benzamide] | > 8.00 | < 100 | ≤ 7.00 | ≥ 8.00 | < 7.00 | – | – | –
CC1(C)CCC(CN2CCN(c3ccc(C(=O)NS(=O)(=O)c4ccc(NC[C@H]5CC[C@](C)(O)CC5)c([N+](=O)[O-])c4)c(Oc4cnc5[nH]ccc5c4)c3)CC2)=C(C23CC(C(F)F)(C2)C3)C1 [Example 34, 2-((1H-pyrrolo[2,3-b]pyridin-5-yl)oxy)-4-(4-((2-(3-(difluoromethyl)bicyclo[1.1.1]pentan-1l-yl)-4,4-dimethylcyclohex-1-en-1-yl)methyl)piperazin-1-yl)-N-((4-((((1r,4r)-4-hydroxy-4-methylcyclohexyl)methyl)amino)-3-nitrophenyl)sulfonyl)benzamide] | > 8.00 | < 100 | 7.00 to 8.00 | ≥ 8.00 | < 7.00 | – | – | –
CC1(C)CCC(C23CC(C)(C2)C3)=C(CN2CCN(c3ccc(C(=O)NS(=O)(=O)c4ccc(N[C@H](CCN5CCC(O)CC5)CSc5ccccc5)c(S(=O)(=O)C(F)(F)F)c4)cc3)CC2)C1 [Example 48, (R)-4-(4-((5,5-dimethyl-2-(3-methylbicyclo[1.1.1]pentan-1-yl)cyclohex-1-enyl)methyl)piperazin-1-yl)-N-(4-(4-(4-hydroxypiperidin-1-yl)-1-(phenylthio)butan-2-ylamino)-3-(trifluoromethylsulfonyl)phenylsulfonyl)benzamide] | 7.00 to 8.00 | 100 to 1000 | – | – | 7.00 to 8.00 | > 8.00 | > 8.00 | –
CC1(C)CCC(CN2CCN(c3ccc(C(=O)NS(=O)(=O)c4ccc(N[C@H](CCN5CCOCC5)CSc5ccccc5)c(S(=O)(=O)C(F)(F)F)c4)cc3)CC2)=C(C23CC(C(F)F)(C2)C3)C1 [Example 55, (R)-4-(4-((2-(3-(difluoromethyl)bicyclo[1.1.1]pentan-1-yl)-4,4-dimethylcyclohex-1-en-1-yl)methyl)piperazin-1-yl)-N-((4-((4-morpholino-1-(phenylthio)butan-2-yl)amino)-3-((trifluoromethyl)sulfonyl)phenyl)sulfonyl)benzamide] | – | 100 to 1000 | ≥ 8.00 | ≥ 8.00 | – | – | – | –
CC1(C)CCC(CN2CCN(c3ccc(C(=O)NS(=O)(=O)c4ccc(N[C@H](CCN5CCOCC5)CSc5ccccc5)c([N+](=O)[O-])c4)cc3)CC2)=C(C23CC(C(F)F)(C2)C3)C1 [Example 58, (R)-4-(4-((2-(3-(difluoromethyl)bicyclo[1.1.1]pentan-1-yl)-4,4-dimethylcyclohex-1-en-1-yl)methyl)piperazin-1-yl)-N-((4-((4-morpholino-1-(phenylthio)butan-2-yl)amino)-3-nitrophenyl)sulfonyl)benzamide] | – | 100 to 1000 | ≥ 8.00 | ≥ 8.00 | – | – | – | –
CN(C)CC[C@H](CSc1ccccc1)Nc1ccc(S(=O)(=O)NC(=O)c2ccc(N3CCN(CC4=C(C56CC(C)(C5)C6)CC(C)(C)CC4)CC3)cc2)cc1S(=O)(=O)C(F)(F)F [Example 59, (R)-4-(4-((4,4-dimethyl-2-(3-methylbicyclo[1.1.1]pentan-1-yl)cyclohex-1-en-1-yl)methyl)piperazin-1-yl)-N-((4-((4-(dimethylamino)-1-(phenylthio)butan-2-yl)amino)-3-((trifluoromethyl)sulfonyl)phenyl)sulfonyl)benzamide] | – | 100 to 1000 | ≥ 8.00 | ≥ 8.00 | – | – | – | 500 to 1000
CN(CCO)CC[C@H](CSc1ccccc1)Nc1ccc(S(=O)(=O)NC(=O)c2ccc(N3CCN(CC4=C(C56CC(C(F)F)(C5)C6)CC(C)(C)CC4)CC3)cc2)cc1S(=O)(=O)C(F)(F)F [Example 60, (R)-4-(4-((2-(3-(difluoromethyl)bicyclo[1.1.1]pentan-1-yl)-4,4-dimethylcyclohex-1-en-1-yl)methyl)piperazin-1-yl)-N-((4-((4-((2-hydroxyethyl)(methyl)amino)-1-(phenylthio)butan-2-yl)amino)-3-((trifluoromethyl)sulfonyl)phenyl)sulfonyl)benzamide] | – | < 100 | ≥ 8.00 | ≥ 8.00 | – | – | – | 500 to 1000
CC1(C)CCC(CN2CCN(c3ccc(C(=O)NS(=O)(=O)c4ccc(N[C@H](CCN5CCC(O)CC5)CSc5ccccc5)c(S(=O)(=O)C(F)(F)F)c4)cc3)CC2)=C(C23CC(C(F)F)(C2)C3)C1 [Example 61, (R)-4-(4-((2-(3-(Difluoromethyl)bicyclo[1.1.1]pentan-1-yl)-4,4-dimethylcyclohex-1-en-1-yl)methyl)piperazin-1-yl)-N-((4-((4-(4-hydroxypiperidin-1-yl)-1-(phenylthio)butan-2-yl)amino)-3-((trifluoromethyl)sulfonyl)phenyl)sulfonyl)benzamide] | – | < 100 | ≥ 8.00 | ≥ 8.00 | – | – | – | < 500
CN(C)C1CCN(CC[C@H](CSc2ccccc2)Nc2ccc(S(=O)(=O)NC(=O)c3ccc(N4CCN(CC5=C(C67CC(C(F)F)(C6)C7)CC(C)(C)CC5)CC4)cc3)cc2S(=O)(=O)C(F)(F)F)CC1 [Example 62, (R)-4-(4-((2-(3-(Difluoromethyl)bicyclo[1.1.1]pentan-1-yl)-4,4-dimethylcyclohex-1-en-1-yl)methyl)piperazin-1-yl)-N-((4-((4-(4-(dimethylamino)piperidin-1-yl)-1-(phenylthio)butan-2-yl)amino)-3-((trifluoromethyl)sulfonyl)phenyl)sulfonyl)benzamide] | – | 100 to 1000 | ≥ 8.00 | ≥ 8.00 | – | – | – | < 500
O=C(NS(=O)(=O)c1ccc(N[C@H](CCN2CCC(O)CC2)CSc2ccccc2)c(S(=O)(=O)C(F)(F)F)c1)c1ccc(N2CCN(CC3=C(C45CC(C(F)F)(C4)C5)CC4(CCC4)CC3)CC2)cc1 [Example 67, (R)-4-(4-((6-(3-(difluoromethyl)bicyclo[1.1.1]pentan-1-yl)spiro[3.5]non-6-en-7-yl)methyl)piperazin-1-yl)-N-((4-((4-(4-hydroxypiperidin-1-yl)-1-(phenylthio)butan-2-yl)amino)-3-((trifluoromethyl)sulfonyl)phenyl)sulfonyl)benzamide] | – | 100 to 1000 | ≥ 8.00 | ≥ 8.00 | – | – | – | –
CC1(C)CCC(CN2CCN(c3ccc(C(=O)NS(=O)(=O)c4ccc(N[C@H](CCN5CCN(CCO)CC5)CSc5ccccc5)c(S(=O)(=O)C(F)(F)F)c4)cc3)CC2)=C(C23CC(C(F)F)(C2)C3)C1 [Example 69, (R)-4-(4-((2-(3-(difluoromethyl)bicyclo[1.1.1]pentan-1-yl)-4,4-dimethylcyclohex-1-en-1-yl)methyl)piperazin-1-yl)-N-((4-((4-(4-(2-hydroxyethyl)piperazin-1-yl)-1-(phenylthio)butan-2-yl)amino)-3-((trifluoromethyl)sulfonyl)phenyl)sulfonyl)benzamide] | – | – | ≥ 8.00 | ≥ 8.00 | – | – | – | 500 to 1000
